Reference: ChEMBL document CHEMBL3045107, “A facile green synthesis and in vitro antimicrobial activity 4H-pyrimido[2,1-b][1,3]benzothiazole derivatives using aluminum trichloride under solvent free conditions” (Med Chem Res, 2012)
Converted amounts (≈) assume the structure as drawn. The source made the active and inactive calls. The rule behind the calls is not given here.

test system: Staphylococcus aureus; assay: Antibacterial activity against Staphylococcus aureus ATCC 11632 after 24 hr by broth microdilution method; format: functional; conditions: ATCC 11632, 24 h

Compound	MIC
CCOC(=O)C1=C(C)N=C2Sc3ccccc3N2C1c1ccc([N+](=O)[O-])cc1 (stereo not given)	25 µg/mL (≈ 63.2 µM)

test system: Providencia rettgeri; assay: Antibacterial activity against Providencia rettgeri isolated from infected fish at 0.78 to 50 ug/ml after 24 hr by broth microdilution method; format: functional, organism-based; conditions: not given

Compound	Activity
CCOC(=O)C1=C(C)N=C2Sc3ccccc3N2C1c1ccccc1 (stereo not given)	inactive

test system: not listed separately; assay: Cytotoxicity against Homo sapiens (human) L123 cells after 48 hr by MTT assay; format: cell-based; set-up: unit not given here; conditions: not given

Compound	IC50
CCOC(=O)C1=C(C)N=C2Sc3ccccc3N2C1c1ccccc1 (stereo not given)	> 100
CCOC(=O)C1=C(C)N=C2Sc3ccccc3N2C1c1ccc(N(C)C)cc1 (stereo not given)	> 100
CCOC(=O)C1=C(C)N=C2Sc3ccccc3N2C1c1ccccc1O (stereo not given)	> 100
CCOC(=O)C1=C(C)N=C2Sc3ccccc3N2C1c1ccc([N+](=O)[O-])cc1 (stereo not given)	> 100

test system: Aspergillus fumigatus; assay: Antifungal activity against Aspergillus fumigatus after 72 hr by broth microdilution method; format: functional; conditions: not given

Compound	MIC
OC(Cn1cncn1)(Cn1cncn1)c1ccc(F)cc1F [FLUCONAZOLE]	1.62 µg/mL (≈ 5.29 µM)
CCOC(=O)C1=C(C)N=C2Sc3ccccc3N2C1c1ccccc1 (stereo not given)	6.25 µg/mL (≈ 17.8 µM)
CCOC(=O)C1=C(C)N=C2Sc3ccccc3N2C1c1ccc([N+](=O)[O-])cc1 (stereo not given)	6.25 µg/mL (≈ 15.8 µM)

test system: Aspergillus niger; assay: Antifungal activity against Aspergillus niger after 72 hr by broth microdilution method; format: functional; conditions: not given

Compound	MIC
OC(Cn1cncn1)(Cn1cncn1)c1ccc(F)cc1F [FLUCONAZOLE]	1.62 µg/mL (≈ 5.29 µM)
CCOC(=O)C1=C(C)N=C2Sc3ccccc3N2C1c1ccc([N+](=O)[O-])cc1 (stereo not given)	12.5 µg/mL (≈ 31.6 µM)

test system: Salmonella typhi; assay: Antibacterial activity against Salmonella enterica subsp. enterica serovar Typhi ATCC 23564 at 0.78 to 50 ug/ml after 24 hr by broth microdilution method; format: functional, organism-based; conditions: not given

Compound	Activity
CCOC(=O)C1=C(C)N=C2Sc3ccccc3N2C1c1ccccc1O (stereo not given)	inactive

test system: Salmonella typhi; assay: Antibacterial activity against Salmonella enterica subsp. enterica serovar Typhi ATCC 23564 after 24 hr by broth microdilution method; format: functional; conditions: ATCC 23564, 24 h

Compound	MIC
CCOC(=O)C1=C(C)N=C2Sc3ccccc3N2C1c1ccccc1 (stereo not given)	25 µg/mL (≈ 71.3 µM)
CCOC(=O)C1=C(C)N=C2Sc3ccccc3N2C1c1ccc(N(C)C)cc1 (stereo not given)	12.5 µg/mL (≈ 31.8 µM)
CCOC(=O)C1=C(C)N=C2Sc3ccccc3N2C1c1ccc([N+](=O)[O-])cc1 (stereo not given)	6.25 µg/mL (≈ 15.8 µM)

test system: Providencia rettgeri; assay: Antibacterial activity against Providencia rettgeri isolated from infected fish after 24 hr by broth microdilution method; format: functional; conditions: not given

Compound	MIC
CCOC(=O)C1=C(C)N=C2Sc3ccccc3N2C1c1ccc(N(C)C)cc1 (stereo not given)	12.5 µg/mL (≈ 31.8 µM)
CCOC(=O)C1=C(C)N=C2Sc3ccccc3N2C1c1ccccc1O (stereo not given)	12.5 µg/mL (≈ 34.1 µM)
CCOC(=O)C1=C(C)N=C2Sc3ccccc3N2C1c1ccc([N+](=O)[O-])cc1 (stereo not given)	25 µg/mL (≈ 63.2 µM)

test system: Bacillus cereus; assay: Antibacterial activity against Bacillus cereus MTCC 7350 after 24 hr by broth microdilution method; format: functional; conditions: MTCC 7350, 24 h

Compound	MIC
CCOC(=O)C1=C(C)N=C2Sc3ccccc3N2C1c1ccccc1 (stereo not given)	12.5 µg/mL (≈ 35.7 µM)
CCOC(=O)C1=C(C)N=C2Sc3ccccc3N2C1c1ccc(N(C)C)cc1 (stereo not given)	6.25 µg/mL (≈ 15.9 µM)
CCOC(=O)C1=C(C)N=C2Sc3ccccc3N2C1c1ccccc1O (stereo not given)	6.25 µg/mL (≈ 17.1 µM)
CCOC(=O)C1=C(C)N=C2Sc3ccccc3N2C1c1ccc([N+](=O)[O-])cc1 (stereo not given)	6.25 µg/mL (≈ 15.8 µM)

test system: Escherichia coli; assay: Antibacterial activity against Escherichia coli ATCC 35218 after 24 hr by broth microdilution method; format: functional; conditions: ATCC 35218, 24 h

Compound	MIC
CCOC(=O)C1=C(C)N=C2Sc3ccccc3N2C1c1ccc(N(C)C)cc1 (stereo not given)	12.5 µg/mL (≈ 31.8 µM)
CCOC(=O)C1=C(C)N=C2Sc3ccccc3N2C1c1ccccc1O (stereo not given)	12.5 µg/mL (≈ 34.1 µM)
CCOC(=O)C1=C(C)N=C2Sc3ccccc3N2C1c1ccc([N+](=O)[O-])cc1 (stereo not given)	12.5 µg/mL (≈ 31.6 µM)

test system: Aspergillus flavus; assay: Antifungal activity against Aspergillus flavus after 72 hr by broth microdilution method; format: functional; conditions: not given

Compound	MIC
OC(Cn1cncn1)(Cn1cncn1)c1ccc(F)cc1F [FLUCONAZOLE]	1.62 µg/mL (≈ 5.29 µM)
CCOC(=O)C1=C(C)N=C2Sc3ccccc3N2C1c1ccccc1O (stereo not given)	12.5 µg/mL (≈ 34.1 µM)

test system: Escherichia coli; assay: Antibacterial activity against Escherichia coli ATCC 35218 at 0.78 to 50 ug/ml after 24 hr by broth microdilution method; format: functional, organism-based; conditions: not given

Compound	Activity
CCOC(=O)C1=C(C)N=C2Sc3ccccc3N2C1c1ccccc1 (stereo not given)	inactive

test system: Staphylococcus aureus; assay: Antibacterial activity against Staphylococcus aureus ATCC 11632 at 0.78 to 50 ug/ml after 24 hr by broth microdilution method; format: functional, organism-based; conditions: not given

Compound	Activity
CCOC(=O)C1=C(C)N=C2Sc3ccccc3N2C1c1ccccc1 (stereo not given)	inactive
CCOC(=O)C1=C(C)N=C2Sc3ccccc3N2C1c1ccc(N(C)C)cc1 (stereo not given)	inactive
CCOC(=O)C1=C(C)N=C2Sc3ccccc3N2C1c1ccccc1O (stereo not given)	inactive

test system: Aspergillus niger; assay: Antifungal activity against Aspergillus niger at 0.78 to 50 ug/ml after 72 hr by broth microdilution method; format: functional; conditions: not given

Compound	inhibition zone (IZ)	Activity
OC(Cn1cncn1)(Cn1cncn1)c1ccc(F)cc1F [FLUCONAZOLE]	18 mm	–
CCOC(=O)C1=C(C)N=C2Sc3ccccc3N2C1c1ccccc1 (stereo not given)	–	inactive
CCOC(=O)C1=C(C)N=C2Sc3ccccc3N2C1c1ccc(N(C)C)cc1 (stereo not given)	–	inactive
CCOC(=O)C1=C(C)N=C2Sc3ccccc3N2C1c1ccccc1O (stereo not given)	–	inactive
CCOC(=O)C1=C(C)N=C2Sc3ccccc3N2C1c1ccc([N+](=O)[O-])cc1 (stereo not given)	17 mm	–

test system: Pseudomonas aeruginosa; assay: Antibacterial activity against Pseudomonas aeruginosa ATCC 15499 after 24 hr by broth microdilution method; format: functional; conditions: ATCC 15499, 24 h

Compound	MIC
CCOC(=O)C1=C(C)N=C2Sc3ccccc3N2C1c1ccccc1 (stereo not given)	25 µg/mL (≈ 71.3 µM)
CCOC(=O)C1=C(C)N=C2Sc3ccccc3N2C1c1ccc(N(C)C)cc1 (stereo not given)	12.5 µg/mL (≈ 31.8 µM)
CCOC(=O)C1=C(C)N=C2Sc3ccccc3N2C1c1ccccc1O (stereo not given)	25 µg/mL (≈ 68.2 µM)
CCOC(=O)C1=C(C)N=C2Sc3ccccc3N2C1c1ccc([N+](=O)[O-])cc1 (stereo not given)	12.5 µg/mL (≈ 31.6 µM)

test system: Aspergillus fumigatus; assay: Antifungal activity against Aspergillus fumigatus at 0.78 to 50 ug/ml after 72 hr by broth microdilution method; format: functional; conditions: not given

Compound	inhibition zone (IZ)	Activity
OC(Cn1cncn1)(Cn1cncn1)c1ccc(F)cc1F [FLUCONAZOLE]	22 mm	–
CCOC(=O)C1=C(C)N=C2Sc3ccccc3N2C1c1ccccc1 (stereo not given)	10 mm	–
CCOC(=O)C1=C(C)N=C2Sc3ccccc3N2C1c1ccc(N(C)C)cc1 (stereo not given)	–	inactive
CCOC(=O)C1=C(C)N=C2Sc3ccccc3N2C1c1ccccc1O (stereo not given)	–	inactive
CCOC(=O)C1=C(C)N=C2Sc3ccccc3N2C1c1ccc([N+](=O)[O-])cc1 (stereo not given)	15 mm	–

test system: Aspergillus flavus; assay: Antifungal activity against Aspergillus flavus at 0.78 to 50 ug/ml after 72 hr by broth microdilution method; format: functional; conditions: not given

Compound	inhibition zone (IZ)	Activity
OC(Cn1cncn1)(Cn1cncn1)c1ccc(F)cc1F [FLUCONAZOLE]	25 mm	–
CCOC(=O)C1=C(C)N=C2Sc3ccccc3N2C1c1ccccc1 (stereo not given)	–	inactive
CCOC(=O)C1=C(C)N=C2Sc3ccccc3N2C1c1ccc(N(C)C)cc1 (stereo not given)	–	inactive
CCOC(=O)C1=C(C)N=C2Sc3ccccc3N2C1c1ccccc1O (stereo not given)	11 mm	–
CCOC(=O)C1=C(C)N=C2Sc3ccccc3N2C1c1ccc([N+](=O)[O-])cc1 (stereo not given)	–	inactive
